Laboratory results: patent US11684701B2, “Operating room coating applicator and method” (Ethicon, Inc., priority 2018, dated 2023)

Legend:
[1] = system: microorganism; details: French Percuflex catheters dip-coated, sterilized with ethylene oxide, stored; for thirty days after being coated; cited from earlier work
[2] = system: Staphylococcus aureus; assay: Zone of inhibition test of gentamicin-coated stainless steel coupon on agar plate; type: cell-based; details: 4% gentamicin solution in water nebulized onto 0.5" polished 316 stainless steel coupon; incubated at 38° C. for 24 hours; initial S. aureus inoculum 10^5 bacteria per cubic centimeter
Text: A filter paper disk, or other object, impregnated with a particular antimicrobial agent is applied to an agar medium that is inoculated with the test organism. Where the anti-microbial agent diffuses through the medium, and as long as the concentration of the antimicrobial agent is above the MIC, none of the susceptible organism will grow on or around the disk for some distance. This distance is called a zone of inhibition. […] The diameter of the zone of inhibition is inversely proportional to the MIC.
A 4% gentamicin solution in water was applied to a 0.5″ polished 316 stainless steel coupon using the device described in FIGS. 3A and 3B according to the cycle described in FIG. 10. The stainless steel coupon was then incubated at 38° C. for 24 hours in an agar plate containing an initial Staphylococcus aureus inoculum of 10^5 bacteria per cubic centimeter of solution.

| Compound | antimicrobial properties (zone of inhibition) [1] | protective zone of inhibition formed around the coupon [2] |
| --- | --- | --- |
| Oc1cc(Cl)ccc1Oc1ccc(Cl)cc1Cl [2,4,4′-tricloro-2-hydroxydiphenyl ether] | produced a zone of inhibition |  |
| gentamicin |  | approximately 8 mm |
